Assay results: PubChem BioAssay (NCI)
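Briefly, cells in 96-well plates were exposed to five compound concentrations for 48 h, and endpoints were estimated by linear interpolation. GI50: concentration for 50% inhibition of growth. TGI marks complete inhibition of growth.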

Assays:
Experiment in all cases: growth of human tumour cells (NCI), 48 h
SF-539 CNS = tested on: SF-539 CNS
OVCAR-4 ovarian = tested on: OVCAR-4 ovarian
786-0 renal = tested on: 786-0 renal
SF-295 CNS = tested on: SF-295 CNS
RPMI-8226 leukemia = tested on: RPMI-8226 leukemia
SK-MEL-28 melanoma = tested on: SK-MEL-28 melanoma
SN12C renal = tested on: SN12C renal
EKVX NSCLC = tested on: EKVX NSCLC
UACC-257 melanoma = tested on: UACC-257 melanoma
MCF7 breast = tested on: MCF7 breast

Structure (SMILES)	TGI (SF-539 CNS) [µM]	TGI (OVCAR-4 ovarian) [µM]	TGI (786-0 renal) [µM]	TGI (SF-295 CNS) [µM]	TGI (RPMI-8226 leukemia) [µM]	TGI (SK-MEL-28 melanoma) [µM]	TGI (SN12C renal) [µM]	TGI (EKVX NSCLC) [µM]	TGI (UACC-257 melanoma) [µM]	GI50 (SF-539 CNS) [µM]	GI50 (OVCAR-4 ovarian) [µM]	GI50 (MCF7 breast) [µM]	TGI (MCF7 breast) [µM]	GI50 (786-0 renal) [µM]	GI50 (UACC-257 melanoma) [µM]	GI50 (SK-MEL-28 melanoma) [µM]	GI50 (SN12C renal) [µM]	GI50 (EKVX NSCLC) [µM]
CN(C(=N)c1ccccc1)c1ccccc1	> 100	> 100	> 100	> 100	> 100	> 100	> 100	> 100										
O=C1C2c3[nH]c4ccccc4c3C3CCC(c4ccccc4)CC3C2C(=O)N1c1ccccc1 (centres undefined)	> 100	> 100	> 100	> 100	> 100	> 100	> 100	> 100										
Clc1cc(Cl)cc(C2SCc3nc4ccccc4n32)c1 (centres undefined)	23.9		32.4	29.3	98.4	36.1	29.9	70.8	32.4									
N#CC1=C(c2ccccc2)NN(Cc2ccccc2)C(c2ccc(Cl)cc2)CC1=O (centres undefined)		75.9	98.4	> 100	64.8	> 100			> 100									
NC(N)=NS(=O)(=O)c1ccc(NC(=O)c2cccn3c(=O)c4ccccc4nc23)cc1	> 100	> 100	> 100	> 100	65.1	> 100	> 100	> 100	58.7									
O=C1C[C@@H]2[C@@H](C=CC23CC3)N1O	> 100	> 100	> 100	> 100	> 100	> 100	> 100	> 100	> 100									
COc1cccc(-c2cc(=O)c3cc(C)c(C)c(C(=O)O)c3o2)c1	> 100	> 100	> 100	> 100	> 100	> 100	> 100	> 100	> 100									
CC(C)(C)c1cc(O)c2c(c1O)C(=O)CCC2	> 100	> 100	> 100	99.2	54.1	> 100	> 100	> 100	74.3									
COC(=O)CCC(=O)Nc1cccc(C(F)(F)F)c1	> 100	> 100	> 100	> 100	> 100	> 100	> 100	> 100	> 100									
COc1cc(-c2nn(-c3ccc(NC(=O)Nc4ccc(Cl)c(C(F)(F)F)c4)cc3)cc2-c2ccncc2)ccc1Cl	3.98	8.45	4.27			3.9	8.82	3.95	3.69	1.76	2.34	2.51	8.28	1.8	1.64	1.88	2.6	1.1
COc1ccc(C(=C(C#N)C#N)c2ccc(OC)cc2)cc1	> 100	> 100	> 100	> 100	> 100	> 100	> 100	> 100	> 100									
C=C(c1ccccc1)[C@@]1(O)CCCC[C@H]1NC(c1ccccc1)c1ccccc1	32.7	34.5	25.5	25.1	25.5	30.2	29	43.7	25.1									
